According to patent US20240018125A1, “CYCLIC ISOTHIOUREA DERIVATIVES AS CXCR4 MODULATORS” (ERMIUM THERAPEUTICS, priority 2020, published 2024):
Structures can show the parent of a compound that is named as a salt.

Tested on: peripheral blood mononuclear cells (PBMCs) from healthy donors
Test: IFN production by R848-activated PBMCs, quantified with twINNE luciferase reporter cell line
Format: cell-based, human
Conditions: Homo sapiens, PBMC; read-out: IC50 of anti-inflammatory activity (IFN production by activated PBMCs)
Experimental: The blood from healthy donors was obtained from “Etablissement Français du Sang” (convention #19/EFS/029), Paris, France.
In vitro experiments were performed using human peripheral blood mononuclear cells (PBMCs) isolated by density centrifugation from peripheral blood leukocyte separation medium, lymphoprep (Stemcell Technologies).
PBMCs were cultured in RPMI 1640 (Sigma-Aldrich, MO, USA) containing 10% heat-inactivated fetal bovine serum (Sigma-Aldrich, MO, USA) at 37° C./5% CO2.
The PBMCs used herein were prepared as described in part A “immune cells preparation”, above. PBMCs were seeded at 4.10^6/mL. Cells were pre-treated with different concentration of examples according to the invention. Cells were then stimulated with the TLR7/8 agonist resiquimod—R848 (Sigma-Aldrich, MO, USA) at 5 μg/mL.
To quantify the secretion of functional IFN, a biological assay based on a stable cell line where luciferase reporter gene is controlled by five Interferon-Stimulated Response Elements (twINNE cell line) was used. First, supernatants of R848-stimulated PBMCs (see part B above) were harvested after 24 h of stimulation and frozen at −20° C. for storage. Then, supernatants were dispensed in culture wells of a 96-well plate containing 35.103 twINNE cells per well in Dulbecco's Modified Eagle's Medium supplemented with 10% Foetal Bovine Serum, 100 U/mL Penicillin and 100 μg/mL Streptomycin (1% Pen-Strep) and 1 mM glutamine (Sigma-Aldrich, MO, USA) at 37° C./5% CO2. After 24 h of culture, luciferase activity was determined by adding 60 μL of Bright-Glo reagents (Promega, Wisconsin, USA) to culture wells and measuring bioluminescence with EnSpire Multimode Plate Reader (PerkinElmer, Massachusetts, USA). When stated, for IC50 calculation, dose-response curves fitted using the nonlin fit (variable slope) analysis in GraphPad Prism software (GraphPad Software, Califronia, USA).
IFN production was quantified (as specified in Materials and Methods, part C “quantification of interferon secretion”) using twINNE reporter cell line.

Compound | IC50 [µM]
Clc1ccc(C2CN=C(SCC3=CSC4=NCc5ccccc5CN34)N2)cc1 (centres unmarked) [Example 22, 3-(((4-(4-chlorophenyl)-4,5-dihydro-1H-imidazol-2-yl)thio)methyl)-5,10-dihydrobenzo[e]thiazolo[3,2-a][1,3]diazepine dihydrochloride] | ≤ 10
c1ccc2c(c1)CN=C(SCCN1C[C@H]3C[C@@H]1CO3)N2 (stereo in doubt) [Example 146, (1R,4R)-5-(2-((1,4-dihydroquinazolin-2-yl)thio)ethyl)-2-oxa-5-azabicyclo[2.2.1]heptane dihydrochloride] | 10 to 32
C1=C(CSC2=NCC(C3CCCCC3)N2)N2Cc3ccccc3CN=C2S1 (centres unmarked) [Example 26, 3-(((4-cyclohexyl-4,5-dihydro-1H-imidazol-2-yl)thio)methyl)-5,10-dihydrobenzo[e]thiazolo[3,2-a][1,3]diazepine dihydrochloride] | ≤ 10
c1ccc2c(c1)CN=C(SCCN1C[C@@H]3C[C@H]1CO3)N2 (stereo in doubt) [Example 139, (1S,4S)-5-(2-((1,4-dihydroquinazolin-2-yl)thio)ethyl)-2-oxa-5-azabicyclo[2.2.1]heptane dihydrochloride] | 10 to 32
Clc1ccc(CC2CN3C(CSC4=NCc5ccccc5N4)=CSC3=N2)cc1 (centres unmarked) [Example 94, 6-(4-chlorobenzyl)-3-(((1,4-dihydroquinazolin-2-yl)thio)methyl)-5,6-dihydroimidazo[2,1-b]thiazole dihydrochloride] | ≤ 10
CN1CCC(CCSC2=NCc3ccccc3N2)C1 (centres unmarked) [Example 145, 2-((2-(1-methylpyrrolidin-3-yl)ethyl)thio)-1,4-dihydroquinazoline dihydrochloride] | 10 to 32
Clc1ccc2c(c1)CN1C(CSC3=NCCc4ccccc4N3)=CSC1=N2 [Example 76, 7-chloro-3-(((4,5-dihydro-1H-benzo[d][1,3]diazepin-2-yl)thio)methyl)-5H-thiazolo[2,3-b]quinazoline dihydrochloride] | 10 to 32
C1=C(CSC2=NCc3ccccc3N2)N2C(=Nc3ccccc3C2c2ccccc2)S1 (centres unmarked) [Example 43, 3-(((3,4-dihydroquinazolin-2-yl)thio)methyl)-5-phenyl-5H-thiazolo[2,3-b]quinazoline dihydrochloride] | ≤ 10
Clc1ccc2c(c1)CN1C(CSC3=NCc4cccc(Br)c4N3)=CSC1=N2 [Example 92, 3-(((8-bromo-1,4-dihydroquinazolin-2-yl)thio)methyl)-7-chloro-5H-thiazolo[2,3-b]quinazoline dihydrochloride] | ≤ 10
Clc1cccc(C[C@H]2CN3C(CSC4=NCc5ccccc5N4)=CSC3=N2)c1 [Example 111, (S)-6-(3-chlorobenzyl)-3-(((1,4-dihydroquinazolin-2-yl)thio)methyl)-5,6-dihydroimidazo[2,1-b]thiazole dihydrochloride] | ≤ 10
Clc1ccc2c(c1)CN=C(SCCN1CCCC1)N2 [Example 59, 6-chloro-2-((2-(pyrrolidin-1-yl)ethyl)thio)-1,4-dihydroquinazoline dihydrochloride] | ≤ 10
c1ccc(CC2CN=C(SCCN3CCCC3)N2)cc1 (centres unmarked) [Example 54, 5-benzyl-2-((2-(pyrrolidin-1-yl)ethyl)thio)-4,5-dihydro-1H-imidazole dihydrochloride] | 10 to 32
c1ccc(CC2CCN(CCSC3=NCc4ccccc4N3)C2)cc1 (centres unmarked) [Example 154, 2-((2-(3-benzylpyrrolidin-1-yl)ethyl)thio)-1,4-dihydroquinazoline dihydrochloride] | > 32
Fc1ccc2c(c1)NC(SCC1=CSC3=NC(Cc4ccccc4)CN13)=NC2 (centres unmarked) [Example 89, 6-benzyl-3-(((7-fluoro-1,4-dihydroquinazolin-2-yl)thio)methyl)-5,6-dihydroimidazo[2,1-b]thiazole dihydrochloride] | ≤ 10
CC1N=C(SCC2=CSC3=NC(Cc4ccccc4)CN23)Nc2ccccc21 (centres unmarked) [Example 113, 6-benzyl-3-(((4-methyl-1,4-dihydroquinazolin-2-yl)thio)methyl)-5,6-dihydroimidazo[2,1-b]thiazole dihydrochloride] | ≤ 10
FC(F)CN1CCC(SC2=NCc3ccccc3N2)C1 (centres unmarked) [Example 102, 2-((1-(2,2-difluoroethyl)pyrrolidin-3-yl)thio)-1,4-dihydroquinazoline hydrochloride] | 10 to 32
c1ccc2c(c1)CCN=C(SCCCCN1CCCC1)N2 [Example 159, 2-((4-(pyrrolidin-1-yl)butyl)thio)-4,5-dihydro-1H-benzo[d][1,3]diazepine dihydrochloride] | 10 to 32
c1ccc2c(c1)CN=C(SC1CCC[C@H]1N1CCCC1)N2 (stereo partly drawn) [Example 141, 2-(((2R)-2-(pyrrolidin-1-yl)cyclopentyl)thio)-1,4-dihydroquinazoline dihydrochloride] | 10 to 32
Clc1ccc2c(ccn2CCSC2=NCc3ccccc3N2)c1 [Example 74, 2-((2-(5-chloro-1H-indol-1-yl)ethyl)thio)-3,4-dihydroquinazoline hydrochloride] | > 32
Clc1nccc2sc(CSC3=NCc4ccccc4N3)cc12 [Example 116, 4-chloro-2-(((1,4-dihydroquinazolin-2-yl)thio)methyl)thieno[3,2-c]pyridine dihydrochloride] | ≤ 10
C1CCNC(SCCCCN2CCCC2)=NC1 [Example 178, 2-((4-(pyrrolidin-1-yl)butyl)thio)-4,5,6,7-tetrahydro-1H-1,3-diazepine dihydrochloride] | > 32
CCCCN1Cc2ccccc2N=C1SCC1=CSC2=NC(Cc3ccccc3)CN12 (centres unmarked) [Example 93, 6-benzyl-3-(((3-butyl-3,4-dihydroquinazolin-2-yl)thio)methyl)-5,6-dihydroimidazo[2,1-b]thiazole dihydrochloride] | ≤ 10
c1ccc(CC2CN=C(SCc3ccncc3)N2)cc1 (centres unmarked) [Example 56, 4-(((5-benzyl-4,5-dihydro-1H-imidazol-2-yl)thio)methyl)pyridine dihydrochloride] | 10 to 32
CC1(C)CN2C(CSC3=NCc4cc(Cl)ccc4N3)=CSC2=N1 [Example 1, 3-(((6-chloro-1,4-dihydroquinazolin-2-yl)thio)methyl)-6,6-dimethyl-5,6-dihydroimidazo[2,1-b]thiazole dihydrochloride] | ≤ 10
COc1ccc(CC2(C)CN=C(SCCCCN3CCCC3)N2)cc1 (centres unmarked) [Example 169, 5-(4-methoxybenzyl)-5-methyl-2-((4-(pyrrolidin-1-yl)butyl)thio)-4,5-dihydro-1H-imidazole dihydrochloride] | > 32
c1ccc(N2CCC(SC3=NCc4ccccc4N3)C2)cc1 (centres unmarked) [Example 101, 2-((1-phenylpyrrolidin-3-yl)thio)-1,4-dihydroquinazoline hydrochloride] | 10 to 32
c1ccc(CC2CN=C(SCCN3CCCCC3)N2)cc1 (centres unmarked) [Example 50, 1-(2-((5-benzyl-4,5-dihydro-1H-imidazol-2-yl)thio)ethyl)piperidine dihydrochloride] | > 32
Clc1ccc2c(c1)CN1C(CSC3=N[C@@H]4CCCC[C@H]4N3)=CSC1=N2 [Example 40, 7-chloro-3-((((3aR,7aR)-3a,4,5,6,7,7a-hexahydro-1H-benzo[d]imidazol-2-yl)thio)methyl)-5H-thiazolo[2,3-b]quinazoline dihydrochloride] | ≤ 10
CC1CCN(CCSC2=NCc3ccccc3N2)C1 (centres unmarked) [Example 138, 2-((2-(3-methylpyrrolidin-1-yl)ethyl)thio)-1,4-dihydroquinazoline dihydrochloride] | ≤ 10
